Results on 14 molecules are retold here after ChEMBL document CHEMBL1201862, “PubChem BioAssay data set” (2004).

Test systems include A549; DLD-1; DMS-114; KM-20L2; LXFL 529; M19-MEL; OVCAR-3; SN12C; SNB-78; SW-620; UACC-257; UO-31; XF498; TK-10; MCF7; NCI/ADR-RES; SR; 786-0.
Common to all, as to assay: NCI-60 cell line screen, 48 h

The structures appear in SMILES notation.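 Protocol summary: plate cells (96-well), add compound at 5 concentrations, incubate 48 h, interpolate endpoints linearly. GI50 is the concentration that inhibits growth by half.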 The source made the active and inactive calls. No stated cut-off is given here; in the data, active = GI50 up to about 1.1 µM and inactive = higher. Some results are limits rather than exact numbers.

On to `Cc1cn(C2CC(O)C(CO)C2C)c(=O)[nH]c1=O` (centres undefined), for which the GI50 in the assay on A549, in the assay on DLD-1, with DMS-114, in the assay with KM-20L2, with LXFL 529 and with M19-MEL was > 100 µM (inactive) in each case. In addition, the GI50 in the assay on OVCAR-3, in the assay with SN12C, in the assay on SNB-78, with SW-620, in the assay with UACC-257 and in the assay with UO-31 was > 100 µM (inactive) each time. Also, in the assay with XF498, the GI50 was > 100 µM (inactive).
For the molecule `CCNc1cnc2c(n1)c(=O)n(C)c(=O)n2C`, the GI50 in the assay on A549, with DLD-1, in the assay on DMS-114, in the assay on KM-20L2, with LXFL 529 and in the assay with M19-MEL was > 100 µM (inactive) each time. Moreover, the GI50 in the assay with OVCAR-3, with SN12C, in the assay with SW-620, in the assay on TK-10, in the assay on UACC-257 and in the assay on UO-31 was > 100 µM (inactive) each time. In addition, the GI50 with XF498 is > 100 µM (inactive).
Regarding `CN1CCN(P2(=S)Oc3ccc4ccccc4c3-c3c(ccc4ccccc34)O2)CC1`, the GI50 with A549 was 40.3 µM (inactive); in the assay on DLD-1, 34.6 µM (inactive); with DMS-114 it was 29.6 µM (inactive); with KM-20L2, 22.8 µM (inactive); with M19-MEL it was 30.3 µM (inactive); in the assay with MCF7 it was 13.6 µM (inactive). The GI50 in the assay on NCI/ADR-RES was 28.7 µM (inactive); in the assay on OVCAR-3, 27.9 µM (inactive); in the assay on SN12C it was 33.5 µM (inactive); in the assay on SNB-78 it was 50.4 µM (inactive); in the assay with SW-620, 39 µM (inactive); in the assay with UACC-257, 29.7 µM (inactive). Besides, the GI50 with UO-31 is 18.4 µM (inactive); in the assay on XF498, 28.8 µM (inactive).
For `c1ccc(CCn2cncn2)cc1`, the GI50 in the assay with A549, with DLD-1, in the assay on DMS-114, in the assay with KM-20L2, in the assay on LXFL 529 and in the assay on M19-MEL was > 100 µM (inactive) throughout. For the same molecule, the GI50 in the assay on OVCAR-3, in the assay on SN12C, in the assay with SNB-78, in the assay with SR, in the assay on SW-620 and in the assay with TK-10 was > 100 µM (inactive) throughout. Moreover, the GI50 in the assay on UACC-257 and in the assay on UO-31 was > 100 µM (inactive) each time.
Turning to `CNS(=O)(=O)NN(C)S(=O)(=O)c1ccc(F)cc1`, the GI50 with 786-0, in the assay on A549, with DLD-1, with DMS-114, in the assay with KM-20L2 and in the assay with LXFL 529 was > 100 µM (inactive) each time. Besides, the GI50 in the assay on OVCAR-3, with SN12C, with SW-620, with TK-10, with UACC-257 and in the assay with UO-31 was > 100 µM (inactive) in each case. Further, the GI50 with XF498 is > 100 µM (inactive).
As for `Cc1cc(C)n(-c2c(O)ccc(O)c2-n2nc(C)cc2C)n1`, the GI50 with 786-0, in the assay with A549, in the assay on DLD-1, in the assay on DMS-114, with KM-20L2 and in the assay with LXFL 529 was > 100 µM (inactive) in each case. In addition, the GI50 in the assay with M19-MEL was 71.6 µM (inactive); with OVCAR-3, > 100 µM (inactive); in the assay with SN12C, > 100 µM (inactive); with SNB-78, > 100 µM (inactive); in the assay with SW-620, > 100 µM (inactive); in the assay on TK-10, > 100 µM (inactive). The GI50 in the assay with UO-31 and in the assay on XF498 was > 100 µM (inactive) throughout.
Take `CCOC(=O)/C=C(\C)c1ccc(Cl)cc1`: the GI50 with A549, in the assay with DLD-1, with DMS-114, in the assay with KM-20L2, in the assay on LXFL 529 and in the assay with SN12C was > 100 µM (inactive) throughout. Also, the GI50 in the assay with SNB-78, in the assay on SR, with SW-620, in the assay with TK-10, with UACC-257 and in the assay on UO-31 was > 100 µM (inactive) throughout. Also, the GI50 in the assay on XF498 is > 100 µM (inactive).
For `CSc1cc(-c2cc3ccccc3o2)oc(=O)c1C#N`, the GI50 is > 100 µM (inactive) in the assay on A549; > 100 µM (inactive) in the assay on DLD-1; 7.43 µM (inactive) in the assay on DMS-114; > 100 µM (inactive) in the assay with KM-20L2; > 100 µM (inactive) in the assay on LXFL 529; > 100 µM (inactive) in the assay with SN12C. Moreover, the GI50 is 88.1 µM (inactive) in the assay on SNB-78; 15.5 µM (inactive) with SR; > 100 µM (inactive) in the assay with SW-620; 21.8 µM (inactive) in the assay on TK-10; > 100 µM (inactive) with UACC-257; 37.5 µM (inactive) with UO-31. In the assay with XF498, the GI50 is 5.83 µM (inactive).
`COC1=C2CC(C)CC(OC)C(O)C(C)/C=C(\C)C(OC(N)=O)C(OC)/C=C\C=C(/C)C(=O)NC(=C(/C=N/C(C)(C)C)C1=O)C2=O` (centres undefined): the GI50 in the assay on A549 is 2.47 µM (inactive); in the assay on DLD-1, 6.05 µM (inactive); in the assay on DMS-114, 0.466 µM (active); with KM-20L2, 2.28 µM (inactive); in the assay with M19-MEL it was 4.45 µM (inactive); in the assay on MCF7 it was 2.89 µM (inactive). Besides, the GI50 in the assay with NCI/ADR-RES is 5.7 µM (inactive); with OVCAR-3, 0.585 µM (active); in the assay with SN12C, 2.04 µM (inactive); in the assay on SNB-78, 13.9 µM (inactive); in the assay with SW-620, 3.73 µM (inactive); with UACC-257, 2.55 µM (inactive). Moreover, the GI50 is 8.81 µM (inactive) in the assay with UO-31 and 0.767 µM (active) in the assay with XF498.
Regarding `CCN(CC)/[N+]([O-])=N/OC`, the GI50 in the assay with A549, in the assay on KM-20L2, with LXFL 529, in the assay on M19-MEL, in the assay with OVCAR-3 and in the assay on SN12C was > 100 µM (inactive) in each case. In addition, the GI50 in the assay with SNB-78, in the assay on SR, in the assay on SW-620, with TK-10, in the assay with UACC-257 and in the assay on UO-31 was > 100 µM (inactive) each time. Moreover, the GI50 with XF498 is > 100 µM (inactive).
Turning to `CCOC(=O)/C=C/c1c(C)[nH]c(=O)[nH]c1=O`, the GI50 in the assay with A549 was > 250 µM (inactive); in the assay with DLD-1, > 250 µM (inactive); in the assay with DMS-114, 120 µM (inactive); with KM-20L2, > 250 µM (inactive); with M19-MEL it was > 250 µM (inactive); in the assay with MCF7, 244 µM (inactive). Moreover, the GI50 in the assay on NCI/ADR-RES was > 250 µM (inactive); with OVCAR-3, > 242 µM (inactive); with SN12C, > 250 µM (inactive); in the assay on SNB-78, > 250 µM (inactive); with SW-620 it was > 250 µM (inactive); in the assay on UACC-257 it was > 250 µM (inactive). For the same molecule, the GI50 in the assay on UO-31 and in the assay with XF498 was > 250 µM (inactive) in each case.
Take `C/C(=N\NS(=O)(=O)c1ccccc1)c1ccccc1`: the GI50 was > 100 µM (inactive) in the assay with A549; > 100 µM (inactive) in the assay with DLD-1; > 100 µM (inactive) in the assay with DMS-114; > 100 µM (inactive) in the assay with KM-20L2; > 94 µM (inactive) in the assay with MCF7; > 100 µM (inactive) in the assay with NCI/ADR-RES. For the same molecule, the GI50 in the assay with OVCAR-3, in the assay with SN12C, in the assay with SNB-78, in the assay on SW-620, with UACC-257 and in the assay with UO-31 was > 100 µM (inactive) each time. Besides, in the assay on XF498, the GI50 was > 100 µM (inactive).
In the case of `CC1(C)O[C@@H](C[C@]2(C#N)C[C@H](CCl)OC(C)(C)O2)C[C@@H](C#N)O1`, the GI50 in the assay on 786-0, in the assay on A549, in the assay with DLD-1, in the assay with DMS-114, in the assay with KM-20L2 and with M19-MEL was > 100 µM (inactive) each time. The GI50 with OVCAR-3, with SN12C, in the assay with SNB-78, in the assay with SR, in the assay with SW-620 and in the assay with TK-10 was > 100 µM (inactive) in each case. Further, the GI50 with UACC-257 is > 100 µM (inactive); in the assay on UO-31 it was > 100 µM (inactive); in the assay on XF498, 55.8 µM (inactive).
As for `COc1cc(O)c2c(c1)C(=O)c1cc(C)cc(O)c1C2=O` [PHYSCION], the GI50 with A549, with DLD-1, with DMS-114, in the assay with KM-20L2, in the assay with LXFL 529 and in the assay with M19-MEL was > 100 µM (inactive) throughout. In addition, the GI50 with OVCAR-3, with SN12C, in the assay with SNB-78, with SR, with SW-620 and in the assay with UACC-257 was > 100 µM (inactive) throughout. In addition, the GI50 with UO-31 is > 100 µM (inactive).
